Consider 5 molecules from paper PMC7468908 (Nutrients, 2020).

The target in one series is T1, OATP2B1 (Homo sapiens, UniProt O94956).
T1 construct: host or cells: A431
T1 sequence (O94956 1-709): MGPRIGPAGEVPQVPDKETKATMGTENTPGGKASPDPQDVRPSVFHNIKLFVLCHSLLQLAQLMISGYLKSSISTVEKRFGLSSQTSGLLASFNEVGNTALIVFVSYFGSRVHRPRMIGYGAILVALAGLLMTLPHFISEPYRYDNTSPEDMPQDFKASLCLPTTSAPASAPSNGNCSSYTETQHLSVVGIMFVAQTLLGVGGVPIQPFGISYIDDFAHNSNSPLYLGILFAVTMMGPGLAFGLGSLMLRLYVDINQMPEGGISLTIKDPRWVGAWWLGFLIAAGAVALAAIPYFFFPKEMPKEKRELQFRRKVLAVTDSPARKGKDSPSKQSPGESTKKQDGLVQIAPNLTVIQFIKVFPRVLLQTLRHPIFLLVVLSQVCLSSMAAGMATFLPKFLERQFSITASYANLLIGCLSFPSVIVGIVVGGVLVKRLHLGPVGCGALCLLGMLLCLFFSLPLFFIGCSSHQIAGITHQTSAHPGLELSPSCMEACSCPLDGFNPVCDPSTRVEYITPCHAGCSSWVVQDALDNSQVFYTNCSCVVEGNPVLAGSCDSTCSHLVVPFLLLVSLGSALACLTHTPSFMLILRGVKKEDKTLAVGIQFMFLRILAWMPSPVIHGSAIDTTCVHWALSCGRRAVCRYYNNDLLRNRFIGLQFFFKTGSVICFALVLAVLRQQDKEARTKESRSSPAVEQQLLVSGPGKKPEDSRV
Nature of the series: OATP2B1-mediated pyranine uptake in A431 cells overexpressing OATP2B1. Format: cell-based. The note with it: 15 min; for IC50: A431-OATP2B1 cells. As for the experimental part:
(§1) A431 cells overexpressing human OATPs, 1A2 (BC042452, HsCD00333163), 1B1 (Gene ID: AB026257), 1B3 (BC141525, HsCD00348132) or 2B1 (BC041095.1, HsCD00378878), or their mock transfected controls, were generated as previously described. Cells were cultured in Dulbecco’s Modified Eagle Medium (DMEM; Thermo Fischer Scientific, Waltham, MA, USA) supplemented with 10% fetal bovine serum, 2 mM L-glutamine, 100 units/mL penicillin and 100 µg/mL streptomycin, at 37 °C with 5% CO2.
(§2) The interaction between flavonoids and OATPs was investigated in an indirect assay employing the fluorescent dye substrates, pyranine and sulforhodamine 101 [51, 52]. Briefly, A431 cell overexpressing OATPs, 1A2, 1B1, 1B3 or 2B1, or their mock transfected controls, were seeded on 96-well plates in a density of 8x10^4 cells/well in 200 μL DMEM one day prior to the transport measurements. […] The reaction was started by the addition of 50 μL uptake buffer containing pyranine in a final concentration of 10 μM (OATP1B1) or 20 μM (OATP1B3 and OATP2B1), or 0.5 μM sulforhodamine 101 (OATP1A2). Thereafter, cells were incubated at 37°C for 15 min (OATP1B1 and OATP2B1), 10 min (OATP1A2), or 30 min (OATP1B3). The reactions were stopped by removing the supernatants, then the cells were washed three times with ice-cold PBS. Fluorescence (in 200 μL PBS/well) was determined employing an Enspire plate reader (Perkin Elmer, Waltham, MA) ex/em: 403/517 nm (pyranine) or 586/605 nm (sulforhodamine 101). OATP-dependent transport was calculated by extracting fluorescence measured in mock transfected cells. Transport activity was calculated based on the fluorescence signal in the absence (100%) of flavonoids. Experiments were repeated at least in three biological replicates. IC50 values were calculated by Hill1 fit, using the Origin Pro8.6 software ([…]).

A further series deals with T2, CYP3A4 (Homo sapiens, UniProt P08684).
T2 construct: purchased Sigma-Aldrich
The series is described as follows: CYP3A4-catalyzed testosterone hydroxylation (CypExpress kit, HPLC). Format: biochemical. Particulars: for concentration inducing statistically significant (p < 0.01) decrease in metabolite formation, CYP3A4: substrate 5 µM testosterone. As for the experimental part: Inhibition of CYP2C19 [47], 3A4 [48], and 2D6 [49] by Q and its conjugates was tested based on our previously reported methods, without modifications.
S-mephenytoin and 4-hydroxymephenytoin (CYP2C19 assay), testosterone and 6β-hydroxytestosterone (CYP3A4 assay), as well as dextromethorphan and dextrorphan (CYP2D6 assay) were quantified using the previously described methods, with minor modifications.
In the CYP3A4 assay, samples were driven through a guard column (Security Guard™ Catridge C18 4.0 × 3.0 mm; Phenomenex, Torrance, CA, USA) linked to an analytical column (Kinetex C18 150 × 4.6 mm; 5 µm; Phenomenex, Torrance, CA, USA), with a 1.2 mL/min flow rate, at room temperature. The mobile phase contained methanol (VWR, Budapest, Hungary), water, and acetic acid (53:46:1 v/v%). After the isocratic elution, testosterone and 6β-hydroxytestosterone were detected at 240 nm.

Another series concerns the target T3, OATP1A2 (Homo sapiens, UniProt P46721).
T3 construct: host or cells: A431
T3 sequence (P46721 1-670): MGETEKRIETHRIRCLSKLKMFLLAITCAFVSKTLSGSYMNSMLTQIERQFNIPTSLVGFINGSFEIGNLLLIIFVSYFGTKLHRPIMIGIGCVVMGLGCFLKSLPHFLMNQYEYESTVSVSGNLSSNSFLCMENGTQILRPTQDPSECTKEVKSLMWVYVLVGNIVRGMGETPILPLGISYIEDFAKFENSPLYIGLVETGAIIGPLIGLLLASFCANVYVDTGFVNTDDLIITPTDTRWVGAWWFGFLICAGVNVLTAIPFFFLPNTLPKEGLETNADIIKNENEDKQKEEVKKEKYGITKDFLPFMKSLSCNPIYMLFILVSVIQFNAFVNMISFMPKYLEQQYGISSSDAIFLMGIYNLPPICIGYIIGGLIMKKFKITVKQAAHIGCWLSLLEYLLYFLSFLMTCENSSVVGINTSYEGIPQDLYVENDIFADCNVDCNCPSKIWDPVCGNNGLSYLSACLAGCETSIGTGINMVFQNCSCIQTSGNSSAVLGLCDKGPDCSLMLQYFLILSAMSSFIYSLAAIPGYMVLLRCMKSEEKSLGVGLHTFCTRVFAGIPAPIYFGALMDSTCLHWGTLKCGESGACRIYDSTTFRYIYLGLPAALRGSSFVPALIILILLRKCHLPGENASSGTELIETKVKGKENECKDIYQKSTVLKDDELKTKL
Nature of the series: OATP1A2-mediated sulforhodamine 101 uptake in A431 cells overexpressing OATP1A2. Type of series: cell-based. Particulars: for IC50: A431-OATP1A2 cells. The procedure: as §1, §2

For series [1] the following is noted: some human subjects, 500 mg single dose of Q in certain oral carrier systems; cited from earlier work.
Setting [2] is: 0.5 μM sulforhodamine 101, 10 min.
[3] abbreviates: 20 μM pyranine, read-out: IC50 for OATP2B1.
Setting [4] is: 0.5 μM sulforhodamine 101, 10 min, read-out: IC50 for OATP1A2.
Where [5] appears, read: testosterone hydroxylation, substrate 5 µM, read-out: IC50 for CYP3A4.

Where “and” joins values, the source holds several entries; their conditions need not be identical. Equal entries are not always repeated. Where two headings read alike, the source gives them in different places. Bounds are passed on as bounds.

T2 sequence (P08684 whole entry): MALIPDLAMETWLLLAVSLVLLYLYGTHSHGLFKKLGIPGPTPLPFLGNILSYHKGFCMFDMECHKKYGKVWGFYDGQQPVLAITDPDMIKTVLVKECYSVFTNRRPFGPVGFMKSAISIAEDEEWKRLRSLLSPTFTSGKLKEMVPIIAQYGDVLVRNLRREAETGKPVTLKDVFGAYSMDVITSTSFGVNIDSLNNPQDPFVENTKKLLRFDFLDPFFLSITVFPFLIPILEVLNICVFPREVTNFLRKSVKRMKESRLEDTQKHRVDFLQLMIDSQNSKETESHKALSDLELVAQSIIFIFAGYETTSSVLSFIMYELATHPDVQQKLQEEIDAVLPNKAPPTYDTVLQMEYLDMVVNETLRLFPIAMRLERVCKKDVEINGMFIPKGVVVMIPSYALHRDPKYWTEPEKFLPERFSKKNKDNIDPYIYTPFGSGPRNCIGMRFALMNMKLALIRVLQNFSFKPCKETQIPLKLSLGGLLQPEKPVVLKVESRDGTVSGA

On to `COc1cc(-c2oc3cc(O)cc(O)c3c(=O)c2O)ccc1O` [IR, isorhamnetin], for which the “concentration causing statistically significant (p < 0.01) inhibition, OATP2B1” value on OATP2B1 (20 μM pyranine) amounted to 0.6 µM. Further, the IC50 (as a rule, the concentration that inhibits the measured activity by half) at OATP2B1 (IC50 for OATP2B1, 20 μM pyranine) is 0.82 µM; at CYP3A4, > 30 µM; on OATP1A2 (IC50 for OATP1A2, 0.5 μM sulforhodamine 101, 10 min) it was > 30 µM. Besides, at CYP3A4, the “concentration inducing statistically significant (p < 0.01) decrease in metabolite formation, CYP3A4” value was 10 µM. For the same molecule, at OATP1A2 (setting [2]), the “concentration causing statistically significant (p < 0.01) inhibition, OATP1A2” value was determined as 3.1 µM.
Consider `O=c1c(O)c(-c2ccc(O)c(O)c2)oc2cc(O)cc(O)c12` [Q, quercetin], for which, on OATP2B1 (20 μM pyranine), the “concentration causing statistically significant (p < 0.01) inhibition, OATP2B1” value amounted to 0.3 µM. Further, the IC50 at OATP2B1 (setting [3]) amounted to 0.34 µM; on OATP1A2 (setting [4]), 10.1 µM. In series [1], the “peak plasma concentrations of total Q” value is 5 to 10 µM. Moreover, on CYP3A4, the “concentration inducing statistically significant (p < 0.01) decrease in metabolite formation, CYP3A4” value came out at 5 µM. The “concentration causing statistically significant (p < 0.01) inhibition, OATP1A2” value on OATP1A2 (setting [2]) turned out to be 3.1 µM.
As to `O=C(O)C1OC(Oc2c(-c3ccc(O)c(O)c3)oc3cc(O)cc(O)c3c2=O)C(O)C(O)C1O` (stereo not drawn) [Q3G, quercetin-3-glucuronide], the “concentration causing statistically significant (p < 0.01) inhibition, OATP2B1” value on OATP2B1 (20 μM pyranine) stood at 3.1 µM. For the same molecule, the IC50 was 4.85 µM on OATP2B1 (setting [3]), > 30 µM at CYP3A4 (setting [5]) and > 30 µM on OATP1A2 (setting [4]). Also, the “concentration inducing statistically significant (p < 0.01) decrease in metabolite formation, CYP3A4” value on CYP3A4 is 20 µM. For the same molecule, the “concentration causing statistically significant (p < 0.01) inhibition, OATP1A2” value on OATP1A2 (setting [2]) was 25 µM.
Consider `O=c1c(O)c(-c2ccc(O)c(OS(=O)(=O)O)c2)oc2cc(O)cc(O)c12` [Q3′S, quercetin-3′-sulfate], for which the “concentration causing statistically significant (p < 0.01) inhibition, OATP2B1” value on OATP2B1 (20 μM pyranine) is 0.3 µM. In addition, the IC50 was 0.43 µM at OATP2B1 (setting [3]); > 30 µM at CYP3A4 (setting [5]); 4.9 µM and 4.92 µM at OATP1A2 (setting [4]). In addition, on CYP3A4, the “concentration inducing statistically significant (p < 0.01) decrease in metabolite formation, CYP3A4” value was found to be 10 µM. Also, at OATP1A2 (setting [2]), the “concentration causing statistically significant (p < 0.01) inhibition, OATP1A2” value amounted to 0.8 µM.
Regarding `COc1cc(-c2oc3cc(O)cc(O)c3c(=O)c2OC2OC(C(=O)O)C(O)C(O)C2O)ccc1O` (stereo not drawn) [I3G, isorhamnetin-3-glucuronide], the “concentration causing statistically significant (p < 0.01) inhibition, OATP2B1” value on OATP2B1 (20 μM pyranine) is 1.6 µM. Further, the results for the IC50 at OATP2B1 (setting [3]), on CYP3A4 (setting [5]) and on OATP1A2 (setting [4]) were 4.14 µM, > 30 µM and > 30 µM, respectively. The “concentration inducing statistically significant (p < 0.01) decrease in metabolite formation, CYP3A4” value at CYP3A4 amounted to 10 µM. Further, the “concentration causing statistically significant (p < 0.01) inhibition, OATP1A2” value at OATP1A2 (setting [2]) is 12.5 µM.
